pIC50: −log10 of the molar value. Read-outs that look alike come from different tables or passages of the source.
What was measured:
[1] = target: PEX5-PEX14 complex (biotin-coupled PEX5 peptide, His-tagged T. brucei PEX14) (Trypanosoma brucei brucei, UniProt Q38CL4); assay: biochemical; type: binding; conditions: 30 nM PEX5, 30 nM PEX14, quadruplicate
From the text: (§1) The assay uses two types of beads: donor beads are coupled with streptavidin, and acceptor beads are coupled with an anti His-tag antibody. Upon excitation with light of a wavelength of 680 nm the donor beads produce reactive oxygen species that travel in solution only for a limited distance. If the acceptor beads are within that travel distance, it will absorb the reactive oxygen and emit light in the range of 520-620 nm. […] Thus, PEX5-PEX14 complex dissociation by a ligand caused decrease in light emission as the donor and acceptor beads were separated. Typically, we used 30 nM PEX5, 30 nM PEX14 and bead concentrations of 5 μg/mL. The PEX5-PEX14 complex was incubated with varying concentrations of inhibitor for 1 hour. Next, the beads were added and the system allowed to equilibrate for another hour. The raw data were fitted to four parameter sigmoidal curves by Origin software and EC50 values calculated. Each measurement was performed in quadruplicate and every experiment was accompanied with blank and reference samples (using non-biotynylated PEX5 peptide as a binding competitor).

[2] = tested on: T. brucei brucei bloodstream form parasites (strain Lister 427); assay: Antitrypanosomal activity assay (resazurin; FIG. 2); type: cell-based; conditions: Trypanosoma brucei; 66 h + 6 h resazurin
Experimental: (A) The trypanosoma cell count and growth were evaluated at different doses of compounds of the invention.
Antitrypanosomal activity was tested on T. brucei brucei bloodstream from parasites (strain—Lister 427, VATMITat 1.2). Stock solutions of compounds (50 mM) were prepared in DMSO. Two fold serial dilutions of each compound (10 wells in each row) were prepared in 96 well plates in HMI111 medium (100 μl/well; quadruplicates; cf. also Hirumi et al., J. Parasitol. 75 (1989), 985-989). One well without compound, and one well with media alone were included in each row. […] The plates were incubated for 66 hours at 37° C. in the incubator with 5% CO2. 20 μl resazurin (Sigma, 0.125 mg/ml in Hanks Balanced Salt Solution) was added to all wells and the plate was further incubated for 6 hours. Change in color of resazurin (blue to pink) by living cells was measured with a 96 well plate reader (excitation at 530 nm, emission at 585 nm, filter cut-off: 570 nm). Percent inhibition values were calculated by setting the well without compound to “0% inhibition”.

[3] = tested on: PEX5-PEX14 complex (biotin-coupled PEX5 peptide, His-tagged T. brucei PEX14); assay: biochemical; type: binding; conditions: 30 nM PEX5, 30 nM PEX14; quadruplicate; read-out: AlphaScreen EC50 [μM] (±SD)
From the text: as §1

[4] = read-out: AlphaScreen EC50 [μM] (±SD)

Sequence of PEX5-PEX14 complex (biotin-coupled PEX5 peptide, His-tagged T. brucei PEX14) (Trypanosoma brucei brucei, UniProt Q38CL4) (Q38CL4 1-366, one chain of several): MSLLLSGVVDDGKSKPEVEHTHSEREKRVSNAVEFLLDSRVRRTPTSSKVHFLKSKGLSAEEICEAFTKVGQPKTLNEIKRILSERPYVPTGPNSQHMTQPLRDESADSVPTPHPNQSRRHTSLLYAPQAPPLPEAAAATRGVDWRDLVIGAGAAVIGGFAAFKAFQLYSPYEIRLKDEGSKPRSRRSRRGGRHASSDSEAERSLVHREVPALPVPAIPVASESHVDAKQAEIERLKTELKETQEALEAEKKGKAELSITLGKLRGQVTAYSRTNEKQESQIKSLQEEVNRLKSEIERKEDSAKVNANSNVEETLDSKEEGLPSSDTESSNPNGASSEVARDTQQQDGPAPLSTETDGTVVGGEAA

SMILES | EC50 [1, 4] | pIC50 [2] | EC50 ([1]; AlphaScreen EC50 [μM] (±SD)) | EC50 [3]
COc1ccc2c(CN3CCc4c(c(C(=O)NCc5cccc6ccccc56)nn4CCO)C3)c[nH]c2c1 [Compound 106] | 25 µM | 5.34 |  | 
COc1ccc2[nH]c(CN3CCc4c(c(C(=O)NCc5cccc6ccccc56)nn4CCO)C3)cc2c1 [Compound 110] | 43.8 µM | 5.59 |  | 
COc1ccc(CN2CCc3c(c(C(=O)NCc4cccc5ccccc45)nn3CCN)C2)c2c1CCCC2 [Compound 100] | 4.62 µM | 7.30 |  | 
O=C(NCc1ccccc1)c1nn(CCO)c2c1CN(Cc1ccc(OC(F)(F)F)cc1)CC2 [Compound 24] | 80.4 µM | 4.60 |  | 
COc1ccc(CN2CCc3nn(CCO)c(C(=O)NCc4cccc5ccccc45)c3C2)c2ccccc12 [Compound 90] | 66.1 µM | 5.48 |  | 
COc1ccc(CN2CCc3c(c(C(=O)NCc4cccc5ccccc45)nn3C3CCCC3)C2)c2ccccc12 [Compound 16] | 10.6 µM | 5.63 |  | 
COc1ccc(CN2CCc3c(c(C(=O)NCc4cccc5ccccc45)nn3CCNC(=N)N)C2)c2ccccc12 [Compound 94] | 1.4 µM | 6.13 |  | 
COc1ccc(CN2CCc3c(c(C(=O)NCc4cccc5cccnc45)nn3CCO)C2)c2ccccc12 [Compound 61] | 24.1 µM | 5.15 |  | 
COc1ccc(CN2CCc3[nH]nc(C(=O)NCc4cccc5ccccc45)c3C2)c2ccccc12 [Compound 5] | 16.5 µM | 5.47 |  | 
O=C(NCc1cccc2ccccc12)c1nn(CCO)c2c1CN(Cc1cccc3cccnc13)CC2 [Compound 45] | 53.8 µM | 4.97 |  | 
COc1ccc(CN2CCc3c(c(C(=O)NCc4cccc5ccccc45)nn3C3CCC3)C2)c2ccccc12 [Compound 18] | 11.1 µM | 5.73 |  | 
O=C(NCc1cccc2ccccc12)c1nn(CCO)c2c1CN(Cc1ccc(F)c3ccccc13)CC2 [Compound 115] | 121 µM | 5.23 |  | 
NC(=O)Cn1nc(C(=O)NCc2ccccc2)c2c1CCN(Cc1c[nH]c3ccccc13)C2 [Compound 4] | 1380 µM | 4.29 |  | 
Cn1nc(C(=O)NCc2ccccc2)c2c1CCN(Cc1c[nH]c3cc(OCc4ccccc4)ccc13)C2 [Compound 11] | 22.1 µM | 5.96 |  | 
O=C(NCc1cccc2ccccc12)c1nn(CCO)c2c1CN(Cc1ccc(C(F)(F)F)cc1)CC2 [Compound 48] | 34 µM | 5.27 |  | 
COc1ccc(CN2CCc3c(c(C(=O)NCc4cccc5ccccc45)nn3CC(O)CN)C2)c2ccccc12 (centres unmarked) [Compound 104] | 10.6 µM | 6.70 |  | 
Cn1nc(C(=O)NCc2ccccc2)c2c1CCN(Cc1cccc(-c3ccccc3)c1)C2 [Compound 10] | 33.6 µM | 5.13 |  | 
O=C(NCc1ccccc1)c1nn(CCO)c2c1CN(Cc1cc3ccccc3c3ccccc13)CC2 [Compound 30] |  | 5.18 | 29.8 µM | 
Cn1nc(C(=O)NCc2ccccc2)c2c1CCN(Cc1cccc3ccccc13)C2 [Compound 12] |  | 4.92 |  | 
Cn1nc(C(=O)NCc2ccccc2)c2c1CCN(Cc1ccc(-c3ccccc3)cc1)C2 [Compound 9] | 27.8 µM | 5.17 |  | 
COc1ccc2c(OC)ccc(CN3CCc4c(c(C(=O)NCc5cccc6ccccc56)nn4CCO)C3)c2c1 [Compound 111] |  |  |  | 52.9 µM
COc1ccc(CN2CCc3nn4c(c3C2)C(=O)N(Cc2cccc3ccccc23)CC4)c2ccccc12 [Compound 91] | 19.2 µM | 5.19 |  | 

SMILES | EC50 [1, 4] | pIC50 [2] | EC50 ([1]; AlphaScreen EC50 [μM] (±SD)) | EC50 [3]
COc1ccc(CN2CCc3c(c(C(=O)NCc4cccc5ccccc45)nn3Cc3ccccc3)C2)c2ccccc12 [Compound 17] | 10.5 µM | 5.59 |  | 
COc1ccc2cc(CN3CCc4c(c(C(=O)NCc5cccc6ccccc56)nn4CCO)C3)ccc2c1 [Compound 114] | 121 µM | 5.41 |  | 
COc1ccc(CN2CCc3c(c(C(=O)NCc4cc(F)cc5ccccc45)nn3CCO)C2)c2ccccc12 [Compound 107] | 28.7 µM | 5.54 |  | 
COc1ccc(CN2CCc3c(c(C(=O)NCc4cccc5ccccc45)nn3C3CN(C(=O)C(C)(C)C)C3)C2)c2ccccc12 [Compound 15] | 7.92 µM | 5.83 |  | 
COc1ccc(CN2CCc3c(c(C(=O)NCc4cccc5ccccc45)nn3CCN3CCOCC3)C2)c2ccccc12 [Compound 13] | 6.72 µM | 5.45 |  | 
COc1ccc(CN2CCc3c(c(C(=O)NCc4cccc5ccccc45)nn3CCC(C)(C)C)C2)c2ccccc12 [Compound 124] |  | 5.46 |  | 
O=C(NCc1cccc2ccccc12)c1nn(CCO)c2c1CN(Cc1ccc(-c3ccccc3)cc1)CC2 [Compound 38] | 10.4 µM | 5.43 |  | 
O=C(NCc1ccccc1)c1nn(CCO)c2c1CN(Cc1ccn(-c3ccccc3)c1)CC2 [Compound 27] | 196 µM | 4.41 |  | 
CCCc1ccc(CN2CCc3c(c(C(=O)NCc4cccc5ccccc45)nn3CCO)C2)cc1 [Compound 49] | 32.5 µM | 5.57 |  | 
NCCn1nc(C(=O)NCc2cccc3ccccc23)c2c1CCN(Cc1ccc(Cl)cc1)C2 [Compound 103] | 10 µM | 6.74 |  | 
O=C(NCc1cccc2ccccc12)c1nn(CCO)c2c1CN(Cc1cccc3cc[nH]c13)CC2 [Compound 53] | 39.8 µM | 5.17 |  | 
O=C(NCc1cccc2ccccc12)c1nn(CCO)c2c1CN(Cc1cccc3c1OCO3)CC2 [Compound 54] | 84.4 µM | 4.72 |  | 
COc1ccc(CN2CCc3c(c(C(=O)NCc4cccc(C)c4)nn3CCO)C2)c2ccccc12 [Compound 62] | 38.1 µM | 5.35 |  | 
NCCn1nc(C(=O)NCc2cccc3ccccc23)c2c1CCN(Cc1ccc(Cl)c(Cl)c1)C2 [Compound 105] | 11.6 µM | 6.47 |  | 
Cn1nc(C(=O)NCc2ccccc2)c2c1CCN(Cc1ccccc1)C2 [Compound 7] | 4530 µM | 4.35 |  | 
CCOC(=O)CN(Cc1cccc2ccccc12)C(=O)c1nn(CCO)c2c1CN(Cc1ccc(OC)c3ccccc13)CC2 [Compound 121] |  | 5.30 |  | 
O=C(NCc1ccccc1)c1nn(-c2ccccc2)c2c1CN(Cc1c[nH]c3ccccc13)CC2 [Compound 6] | 18.3 µM | 5.10 |  | 
COc1ccc(CN2CCc3c(c(C(=O)NCc4cccc5[nH]ccc45)nn3CCO)C2)c2ccccc12 [Compound 60] | 20.2 µM | 5.25 |  | 
COc1ccc(CN2CCc3c(c(C(=O)NCc4cccc5ccccc45)nn3-c3cnccn3)C2)c2ccccc12 [Compound 14] | 11.9 µM | 5.44 |  | 
O=C(NCc1cccc2ccccc12)c1nn(CCO)c2c1CN(Cc1cccc(-c3ccccc3)c1)CC2 [Compound 39] | 12.7 µM | 5.26 |  | 
COc1ccc(CN2CCc3c(c(C(=O)NCc4cccc5ccccc45)nn3-c3ccccc3)C2)c2ccccc12 [Compound 37] | 7.61 µM | 5.46 |  | 
C=C(C)C1CC=C(CN2CCc3c(c(C(=O)NCc4ccccc4)nn3CCO)C2)CC1 (centres unmarked) [Compound 77] | 142 µM |  |  | 

— patent US10138242B2, “Pyrazolopyridine derivatives and their use in therapy” (HELMHOLTZ ZENTRUM MUENCHEN—DEUTSCHES FORSCHUNGSZENTRUM FUER …, priority 2015, dated 2018)
